Several values for one entry are separate records, joined by “and”; a condition that tells them apart may be missing. Identical values can stand only once.
Assays:
[1] = tested on: Du145 prostate; experiment: MTT growth inhibition, 72 h, Du145; format: cell-based; conditions: Du145, MTT, 72 h
[2] = tested on: MIA pancreas; experiment: MTT growth inhibition, 72 h, MIA; format: cell-based
[3] = tested on: A2780 ovarian; experiment: MTT growth inhibition, 72 h, A2780; format: cell-based
[4] = tested on: MCF7 breast; experiment: MTT growth inhibition, 72 h, MCF7; format: cell-based; conditions: MCF7, MTT, 72 h
[5] = tested on: H460 lung; experiment: MTT growth inhibition, 72 h, H460; format: cell-based; conditions: H460, MTT, 72 h
[6] = tested on: multiple cell lines; experiment: MTT growth inhibition, over all cell lines tested; format: cell-based; conditions: mean over all cell lines tested; read-out: Mean GI50 Values
[7] = tested on: non-tumour derived MCF10A breast line; experiment: MTT growth inhibition, 72 h, MCF10A; format: cell-based
[8] = Reduction with ascorbic acid (AsA) in PBS followed by 1H-NMR and 1D-195Pt-NMR; format: physicochemical; conditions: 37 °C
Experimental: The reduction behaviour of 1–6 was probed via ^1H-NMR and 1D-^195Pt-NMR spectroscopy, as previously described (see Supplementary Materials).
The reduction behaviour of 1–6 was monitored by ^1H-NMR and 1D-^195Pt-NMR spectroscopy using previously established methods. Prior to the reduction measurements, each metal complex was dissolved with PBS in D2O only.
Based on the initial 1D-^195Pt-NMR spectra acquired (Figures S62 and S63), the structural integrity of the complexes was retained, and no signs of reduction were observed, thus also confirming that the PBS had no effect on the complexes. Subsequently, AsA was added in each solution containing the metal complex, PBS and D2O. Then, sequential ^1H-NMR experiments were undertaken for 1 h, followed by final 1D-^195Pt-NMR experiments measured within the regions of 400 and −2800 ppm (Figures S64–S75). The approximate time points for 1–6 at which an estimated 50 and 100% reduction had occurred, in the presence of AsA, as represented by T50% and T100%, are summarised in Table 8.
A sequence of 1H-NMR experiments was carried out for 1 h at 37 °C, followed by 1D-195Pt-NMR within the regions of –2800 and 400 ppm. An amount of 10 mM PBS (~7.4 pH) was transferred to a vial and reduced to dryness through rotary evaporation. AsA (~1 mg) was combined with the metal complex (~5 mg) and transferred to the vial containing the dried PBS. 600 μL of D2O was then added to the vial to dissolve the complex, AsA and the PBS together. Each reaction was followed at 37 °C until the complete reduction […]
The cell lines tested were: HT29 colon, U87 glioblastoma, MCF-7 breast, A2780 ovarian, H460 lung, A431 skin, Du145 prostate, BE2-C neuroblastoma, SJ-G2 glioblastoma, MIA pancreas, ADDP ovarian variant, and the non-tumour derived MCF10A breast line. In […]
agents were prepared in DMSO (30 mM stock solutions) and stored at −20 °C until use.
All cell lines were cultured in a humidified atmosphere 5% carbon dioxide at 37 °C. The cancer cell lines were maintained in Dulbecco’s modified Eagle’s medium (DMEM) (Trace Biosciences, Sydney, NSW, Australia) supplemented with 10% foetal bovine serum, 10 mM sodium bicarbonate penicillin (100 IU mL−1), streptomycin (100 μg mL−1) and glutamine (4 mM). The non-cancer MCF10A cell line was cultured in DMEM:F12 (1:1) cell culture media, 5% heat inactivated horse serum, supplemented with penicillin (50 IU mL−1), streptomycin (50 μg mL−1), 20 mM 4-(2-hydroxyethyl)-1-piperazineethanesulfonic acid (HEPES), L-glutamine (2 mM), epidermal growth factor (20 ng mL−1), hydrocortisone (500 ng mL−1), cholera toxin (100 ng mL−1) and insulin (10 μg mL−1). Cytotoxicity was determined by plating cells in duplicate in […] medium at a density of 2500 – 4000 cells per well in 96 well plates. On day 0 (24 h after plating) when the cells were in logarithmic growth, 100 μL of medium with or without the test agent

[9] = tested on: ADDP ovarian variant (cisplatin-resistant A2780 clone); experiment: MTT growth inhibition, 72 h, ADDP; format: cell-based; conditions: ADDP, MTT, 72 h
[10] = tested on: HT29 colon; experiment: MTT growth inhibition, 72 h, HT29; format: cell-based, human
[11] = tested on: HT29 colon cells; experiment: ROS production, DCFDA/H2DCFDA cellular ROS assay; format: cell-based, human; conditions: treatment at GI50 concentration (TBHP positive control 20 μM)
Experimental: To determine the presence of ROS in treated cells, a DCFDA/H2DCFDA-cellular ROS Assay Kit (Abcam, Cambridge, MA, USA) was utilised, as previously reported. The ROS potential of platinum(II) precursors and platinum(IV) scaffolds, which were determined using the same method, were also presented in this study for comparison.
Additionally, the ROS potential of the platinum(II) precursors and platinum(IV) scaffolds was determined previously and was presented here to allow for comparison (Table 10 and Figure 13). […] Treatment with the complexes and ligands was completed at each specific GI50 concentration. […]
dimethylthiazol-2-yl]-2,5-diphenyltetrazolium bromide) assay and absorbance was read at 540 nm. An eight-point dose response curve was produced from which the GI50 value was calculated, representing the drug concentration at which cell growth was inhibited by 50% based on the difference between the optical density values on day 0 and those at the end of drug exposure.
4. Reactive Oxygen Species (ROS) Potential
A total of 25,000 cells/mL of HT29 cells in DMEM were seeded in 96-well plates. Cells were washed with 1X kit buffer, and then stained with 25 μM 2’,7’-dichlorofluorescein diacetate (DCFH-DA) and incubated for 45 min. DCFH-DA was then removed, and cells were then re-washed with 1X kit buffer, after which phenol red free media was added.
Cells were then treated with a GI50 drug concentration for each complex. The plates were directly scanned to measure fluorescence (relative fluorescence units (RFU)) at different time points using the Glo-Max®-Multimode microplate reader (Promega Corporation, Alexandra, VIC, Australia) at an excitation/emission of 485/535 nm. […]

**Q.** For `COc1ccc2cc([C@H](C)C(=O)[O][Pt+2]3([OH])[N]4C=CC=c5cc(C)c6c(c54)[N]3C=CC=6)ccc2c1.N[C@H]1CCCC[C@@H]1N` (stereo partly drawn) [Complex 2, [Pt^IV(5-Mephen)(SS-DACH)(NPX)(OH)]^2+], which GI50 [1] is on record?
**A.** 0.13 ± 0.027 µM

**Q.** And the GI50 [2]?
**A.** 0.37 ± 0.054 µM

**Q.** What about the GI50 [3] of the same compound?
**A.** 0.29 ± 0.056 µM

**Q.** And the GI50 [4]?
**A.** 0.72 ± 0.24 µM

**Q.** And the GI50 [5]?
**A.** 0.41 ± 0.037 µM

**Q.** And the GI50 [6]?
**A.** 0.49 ± 0.075 µM

**Q.** And the GI50 [7]?
**A.** 0.31 ± 0.012 µM

**Q.** What about the “Reduction Times T50%” value ([8]; estimated 50% reduction, PBS in D2O) of the same compound?
**A.** 10 to 15 min

**Q.** And the “Reduction Times T100%” value ([8]; estimated 100% reduction, PBS in D2O)?
**A.** post 60 min

**Q.** And the “time of complete reduction to platinum(II) precursor” value ([8]; final 1D-195Pt-NMR at 400 ppm)?
**A.** ~ 1.5 h

**Q.** And the GI50 [9]?
**A.** 0.28 ± 0.027 µM

**Q.** And the GI50 [10]?
**A.** 0.21 ± 0.019 µM

**Q.** What about the “ROS Production” value ([11]; HT29, 24 h) of the same compound?
**A.** 290 ± 17 RFU

**Q.** And the “ROS Production” value ([11]; HT29, 48 h)?
**A.** 261 ± 15 RFU

**Q.** And the “ROS Production” value ([11]; HT29, 72 h)?
**A.** 84 RFU and 84 ± 9 RFU
